Results as given in patent publication US7153849B2, “Antidepressant arylpiperazine derivatives of hetrocycle-fused benzodioxans” (Wyeth, priority 2002, dated 2006).

Experiments:
[1] = target: T1, serotonin transporter (Rattus norvegicus, UniProt P31652); assay: 3H-paroxetine displacement from rat frontal cortical membranes (serotonin transporter affinity); format: binding; conditions: 3H-paroxetine, male rat frontal cortical membranes; for Ki: read-out: 5-HT Transporter Affinity Ki
T1 construct: displace ^3H-paroxetine from male rat frontal cortical membranes; from tissue; host or cells: male rat frontal cortical membranes
T1 sequence (P31652 whole entry): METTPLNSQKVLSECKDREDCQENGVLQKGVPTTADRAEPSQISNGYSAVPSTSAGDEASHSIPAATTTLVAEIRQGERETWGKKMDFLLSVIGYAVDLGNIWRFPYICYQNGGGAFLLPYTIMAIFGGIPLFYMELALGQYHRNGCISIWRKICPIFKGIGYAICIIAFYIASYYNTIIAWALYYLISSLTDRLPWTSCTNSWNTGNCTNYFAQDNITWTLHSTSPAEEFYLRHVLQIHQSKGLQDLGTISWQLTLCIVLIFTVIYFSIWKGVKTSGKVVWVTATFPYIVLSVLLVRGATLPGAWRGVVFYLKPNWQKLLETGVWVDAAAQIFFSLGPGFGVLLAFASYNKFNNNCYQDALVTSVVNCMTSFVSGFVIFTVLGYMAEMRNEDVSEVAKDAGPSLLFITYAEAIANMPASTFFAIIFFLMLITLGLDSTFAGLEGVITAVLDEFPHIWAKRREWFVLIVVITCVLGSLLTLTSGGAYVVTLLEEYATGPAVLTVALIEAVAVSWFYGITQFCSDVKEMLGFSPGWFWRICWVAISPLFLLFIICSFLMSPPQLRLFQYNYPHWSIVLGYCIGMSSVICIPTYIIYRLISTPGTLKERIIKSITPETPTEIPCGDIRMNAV

[2] = target: T2, cloned human 5HT1A receptors (Homo sapiens, UniProt P08908); assay: 35S-GTPγS binding assay, 5HT1A antagonist activity; format: biochemical; conditions: for 5HT1A Function Imax: maximum inhibitory effect, vs 8-OH-DPAT, unit assumed; for IC50: reversal of 8-OH-DPAT (antagonist), read-out: 5HT1A Function IC50
T2 construct: expressed in transfected cells
T2 sequence (P08908 1-422): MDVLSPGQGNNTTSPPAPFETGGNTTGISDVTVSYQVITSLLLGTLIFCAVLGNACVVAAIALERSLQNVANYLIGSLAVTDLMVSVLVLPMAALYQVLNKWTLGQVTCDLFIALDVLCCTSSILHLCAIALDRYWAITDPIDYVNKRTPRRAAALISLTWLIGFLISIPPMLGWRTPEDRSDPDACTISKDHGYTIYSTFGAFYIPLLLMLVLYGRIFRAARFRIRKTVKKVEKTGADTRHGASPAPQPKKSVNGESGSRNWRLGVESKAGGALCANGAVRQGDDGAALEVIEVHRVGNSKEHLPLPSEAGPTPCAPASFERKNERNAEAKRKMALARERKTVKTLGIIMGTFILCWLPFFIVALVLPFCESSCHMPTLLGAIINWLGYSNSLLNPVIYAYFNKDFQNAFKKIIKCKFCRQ
Experimental: Antagonist activity at 5HT1A receptors was established by using a ^35S-GTPγS binding assay similar to that used by Lazareno and Birdsall (Br. J. Pharmacol. 109:1120, 1993), in which the test compound's ability to affect the binding of ^35S-GTPγS to membranes containing cloned human 5HT1A receptors was determined. Agonists produce an increase in binding whereas antagonists produce no increase but rather reverse the effects of the standard agonist 8-OH-DPAT. The test compound's maximum inhibitory effect is represented as the Imax, while its potency is defined by the IC50.

[3] = target: T3, human 5HT1A receptors (Homo sapiens, UniProt P08908); assay: [3H] 8-OH-DPAT displacement from 5HT1A receptor in stably transfected CHO cells; format: binding; conditions: CHO cells with human 5HT1A; for Ki: read-out: 5HT1A Receptor Affinity Ki
T3 construct: expressed in transfected cells; host or cells: CHO cells
T3 sequence (P08908 1-422): T2 sequence (P08908 1-422)
Excerpt: High affinity for the serotonin 5HT1A receptor was established by testing the claimed compound's ability to displace [^3H] 8-OH-DPAT (dipropylamino-tetralin) from the 5HT1A serotonin receptor following a modification of the procedure of Hall et al., J. Neurochem. 44, 1685 (1985) which utilizes CHO cells stably transfected with human 5HT1A receptors.

Structure (SMILES) | melting point [°C] | Ki [1] [nM] | 5HT1A Function Imax [2] [%] | IC50 [2] [nM] | Ki [3] [nM] | 5-HT Transporter Affinity, % @ 1 μM [1] [% @ 1 μM] | 5HT1A Receptor Affinity, % @ 1 μM [3]
COc1ccccc1N1CCN(C[C@H]2COc3ccc4nc(C)ccc4c3O2)CC1 [Example 4, (2S)-2-{[4-(2-methoxyphenyl)piperazin-1-yl]methyl}-8-methyl-2,3-dihydro[1,4]dioxino[2,3-f]quinoline] | 44 to 47 |  | 87 | 994 |  | 34 | 95% @ 1 μM
Cc1ccc2c3c(ccc2n1)OC[C@H](CN1CCN(c2cccc(C(F)(F)F)c2)CC1)O3 [Example 8, (2S)-8-methyl-2-[4-(3-trifluoromethyl-phenyl)piperazin-1-ylmethyl]-2,3-dihydro[1,4]dioxine[2,3-f]quinoline] | 123 to 124 | 21.6 | 100 | 3110 | 31.4 |  | 
Cc1ccc2c3c(ccc2n1)OC[C@H](CN1CCN(c2ccc4ccccc4n2)C[C@H]1C)O3 [Example 21, (2S)-8-methyl-2-{[(2R)-2-methyl-4-quinolin-2-ylpiperazin-1-yl]methyl}-2,3-dihydro[1,4]dioxino[2,3-f]quinoline] | 78 to 82 | 32.8 | 83.5 | 867 | 5.53 |  | 
Cc1ccc2c3c(ccc2n1)OC[C@H](CN1CCN(c2ccc4cc(Br)ccc4n2)CC1)O3 [Example 27, (2S)-2-{[4-(6-Bromoquinolin-2-yl)piperazin-1-yl]methyl}-8-methyl-2,3-dihydro[1,4]dioxino[2,3-f]quinoline] | 153 to 154 | 101 | 82 | 2410 | 17.1 |  | 
Cc1ccc2c3c(ccc2n1)OC[C@H](CN1CCCN(c2ccc4cc(C#N)ccc4n2)CC1)O3 [Example 34, 2-(4-{[(2S)-8-Methyl-2,3-dihydro[1,4]dioxino[2,3-f]quinolin-2-yl]methyl}-1,4-diazepan-1-yl)quinoline-6-carbonitrile] | 80 to 85 | 1.09 |  |  | 2.04 |  | 

The remaining compounds from weak to strong by IC50 [2], led by results:

melting point [°C] | Ki [1] [nM] | 5HT1A Function Imax [2] [%] | IC50 [2] [nM] | Ki [3] [nM] | 5-HT Transporter Affinity, % @ 1 μM [1] [% @ 1 μM] | 5HT1A Receptor Affinity, % @ 1 μM [3] | Structure (SMILES)
110 to 112 | 15.7 | 100 | 4560 | 15.9 |  |  | Cc1ccc2c3c(ccc2n1)OC[C@H](CN1CCN(c2cccc(Cl)c2)CC1)O3 [Example 1, (2S)-2-{[4-(3-chlorophenyl)piperazin-1-yl]methyl}-8-methyl-2,3-dihydro[1,4]dioxino[2,3-f]quinoline]
164 to 165 |  | 37 | 3940 |  | 0 | 81% A1 μM | COc1ccc(N2CCN(C[C@H]3COc4ccc5nc(C)ccc5c4O3)CC2)cc1 [Example 6, (2S)-2-{[4-(4-methoxyphenyl)piperazin-1-yl]methyl}-8-methyl-2,3-dihydro[1,4]dioxino[2,3-f]quinoline]
141 to 144 | 123 | 90 | 3000 | 167 |  |  | Cc1ccc2c3c(ccc2n1)OC[C@H](CN1CCN(c2ccc4ccccc4n2)C[C@@H]1C)O3 [Example 19, (2S)-8-methyl-2-{[(2S)-2-methyl-4-quinolin-2-ylpiperazin-1-yl]methyl}-2,3-dihydro[1,4]dioxino[2,3-f]quinoline]
90 to 91 | 35.5 | 84 | 1720 |  |  | 80% @ 1 μM | COc1cccc(N2CCN(C[C@H]3COc4ccc5nc(C)ccc5c4O3)CC2)c1 [Example 5, (2S)-2-{[4-(3-methoxyphenyl)piperazin-1-yl]methyl}-8-methyl-2,3-dihydro[1,4]dioxino[2,3-f]quinoline]
112 to 113 | 88.5 | 98 | 403 | 82.5 |  |  | Cc1ccc2c3c(ccc2n1)OC[C@H](CN1CCN(c2cccc(C)c2C)CC1)O3 [Example 10, (2S)-2-{[4-(2,3-dimethylphenyl)piperazin-1-yl]methyl}-8-methyl-2,3-dihydro[1,4]dioxino[2,3-f]quinoline]
118 to 120 | 85.5 | 84 | 345 | 18.2 |  |  | Cc1ccc2c3c(ccc2n1)OC[C@H](CN1CCN(c2ccc(C)c(C)c2)CC1)O3 [Example 11, (2S)-2-{[4-(3,4-dimethylphenyl)piperazin-1-yl]methyl}-8-methyl-2,3-dihydro[1,4]dioxino[2,3-f]quinoline]
